# Results as given in patent US20020004198A1, “Novel anti-infectives” (priority 1998, published 2002).
# Columns and labels:
# [1] = biological target: T1, UL80.5 gene product/MCP interaction (Human cytomegalovirus, UniProt P16729); experiment: competitive binding assay (ELISA): inhibition of UL80.5 gene product/MCP interaction; set-up: species or system CMV; conditions: 0.1 μg of UL80.5 peptide; compound 0.4 to 50 μM; average of six independent experiments (FIG. 3); read-out: average IC50 (concentration at which binding is reduced by 50%)
# T1 construct: Recombinant baculovirus Autographa californiica nuclear polyhedrosis virus expressing full-length CMV MCP; made in house; host or cells: Sf9 insect cells infected with recombinant baculovirus; crude clarified supernatant used for coating
# Method: Inhibitor activity was detected using a competitive binding assay. Scaffolding polypeptide and the compound to be tested are added sequentially or simultaneously to a microtiter plate precoated with full-length MCP. A primary antibody specific for the scaffolding polypeptide is then added, followed by a labeled secondary antibody directed against the primary antibody, and signal from the label measured. If the compound is unable to compete for binding, then the peptide binds to MCP and a signal is detected. […] In all assays a background control is included in which no peptide is added, but all other reagents are identical. In addition, a set of samples in which no compound is added is also included. This value is set at 100% and the percent inhibition is calculated relative to this number. […]
# In order to determine if potential inhibitors of UL80.5 gene product/MCP interaction could be detected with this assay, compounds were assayed for activity.
# In order to assay for inhibitors in a high throughput manner, the ELISA assay described above was modified. […] The plates were washed 6 times, and 50 μl of Wallac enhancement solution (Wallac; Gaithersburg, Md.) added, and the plate shaken for 10 minutes, before being read on a Wallac VICTOR microtiter plate reader (Wallac; Gaithersburg, Md.).
# [2] = biological target: MCP protein (Human cytomegalovirus, UniProt P16729); conditions: increasing concentrations of peptide (0.1 to 10 μg), FIG. 2
# Method: To investigate the interaction between the UL80.5 peptide and MCP, an ELISA assay was developed. For this purpose, a 96 well microtiter plate (Nunc—Immuno Maxisorp) was coated with 100 μl per well of a 1/50 dilution (in carbonate buffer: 40 mM NaCO3, 36 mM NaHCO3, 3mM Na Azide pH 9.6) of recombinant baculovirus supernatant containing MCP (prepared as described above). The plate was incubated at 37° C. for 2 hours. The plate was then washed 4-5 times in 200 μl per well of PBS (1.37 M NaCl, 80 mM Na2HPO4, 26.8 KCl, 14.7 mM KH2PO4, pH 7.0) containing 0.2 % Triton X-100, followed by incubation with 0.1 μg of UL80.5 peptide (SEQ ID NO:3) diluted in carbonate buffer for 1 hour at 37° C. The plate was then washed to remove any unbound peptide, and subsequent nonspecific binding blocked by the addition of 200 μl of 1% casein block (Pierce; Rockford, Ill.) 3 times for 30 seconds each at room temperature. The plate was washed as before, and 200 μl of a primary antipeptide antibody (prepared as described above) diluted 1/5000 in wash buffer (PBS containing 0.2% Triton X-100) was added and incubated for 1 hour at room temperature. […] Following a 30 minute room temperature incubation in the dark, the plate was read at 450 nm on a microtiter plate reader. […]
Molecule,IC50 [1],concentration of peptide at which 50% binding to MCP occurred [2]
NCCc1c[nH]c2ccc(-c3ccc4ccccc4c3)cc12 [Target compound 6],4.2 µM,
NH2-Ala-Ser-Gln-Ser-Pro-Pro-Lys-Asp-Met-Val-Asp-Leu-Asn-Arg-Arg-Ile-Phe-Val-Ala-Ala-Leu-Asn-Lys-Leu-Glu-COOH [UL80.5 peptide],,0.3 µg
